Measured values as given in patent US9873719B2, “Salt and protease-resistance of antimicrobial peptide and the manufacture thereof” (priority 2013, dated 2018).
Square brackets hold non-standard residues; d marks the D form. Peptide text beside a SMILES is read from it. 2Nal = N[C@@H](Cc1ccc2ccccc2c1)C(=O)O

Columns and labels:
in vitro = in vitro ADME, bovine
Procedure: Serum stability of the peptides was determined in 25% (v/v) aqueous bovine calf serum (HyClone, cat. AUE-34962). Firstly, peptides were dissolved in serum at a concentration of 150 μg/mL and incubated at 37° C. After 45 min on ice for precipitating serum proteins, the serum was centrifuged at 12,000 g for 10 min at 4° C., and then the supernatants were lyophilized. Remaining amount of the peptides was determined by RP-HPLC.

[1] = system: Eschericha coli (ATCC 25922), Staphylococcus aureus (ATCC 25923, 29213, and 19636), and Pseudomonas aeruginosa (ATCC 27853 and 9027); experiment: Salt resistance test: antibacterial activity assay (NCCLS microdilution, MIC90); type: cell-based; conditions: for antimicrobial activity at 300 mM NaCl: FIG. 1b; for antimicrobial activity compared with reference peptide (S1 or S2-Nal): MHB medium or the high-salt condition, comparison in words; for antimicrobial activity: at MHB medium or the high-salt condition, FIG. 1a/1b
From the text: Antibacterial activity assay was used to determine the antimicrobial activity of S1, Nal-S1, S1-Nal-Nal, S1-Nal-Nal-Nal, S1-W, S1-W-W, S1-K-K-K, S2-Nal, S2-F-Nal, S2-Nal-Nal at different salt concentration. Eschericha coli (ATCC 25922), Staphylococcus aureus (ATCC 25923, 29213, and 19636), and Pseudomonas aeruginosa (ATCC 27853 and 9027) were used in the Example.
Microdilution method of National Committee for Clinical Laboratory Standards (NCCLS) was used to determine the minimal inhibition concentration (MIC). The MIC as used herein is a minimum inhibitory concentration required to inhibit the growth of 90% of organisms (MIC90).
In the Microdilution method, 1 μl of peptide solution (5,000 μg/ml to 78.1 μg/ml) and 99 μl of bacteria suspension were mixed and added into 96 wells plates. After 16 hours of incubation at 37° C., the optical density (O.D.) value at 600 nm was detected by ELISA (Thermo Max, Molecular Devices, Sunnyvale, Calif.). The Muller-Hinton Broth (MHB) medium without peptide and bacterial suspension were used as negative control and positive control, separately. The MIC value means a minimum inhibitory concentration required to inhibit the growth (equal or more than 90%) of bacteria.

[2] = system: human red blood cells (hRBCs)
Procedure: The hemolysis of peptides was determined by evaluating the effect of peptides on human red blood cells (hRBCs). hRBCs were obtained by washing the heparinized blood with PBS buffer three times, and stored at physiological saline with 10% phosphate buffer. The peptides were dissolved in PBS buffer, and then 50 μl of 10% (v/v) hRBCs was added to the PBS buffer at 37° C. for 1 hour of incubation (the final volume concentration of the hRBCs was 5%). After 1 hour of incubation, the hBRCs were centrifuged, and the hemolysis ratio was determined by detecting the absorbance values at 540 nm using a spectrophotometer. The hemolysis ratio of hRBCs without treatment was defined as 0%, and the hemolysis ratio of hRBCs treated with 1% Triton-X 100 was defined as 100%.

Row | Molecule | degree of protection of the peptides from degradation in bovine calf serum (rank order) (in vitro) | antimicrobial activity at 300 mM NaCl [1] | antimicrobial activity compared with reference peptide (S1 or S2-Nal) [1] | antimicrobial activity [1] | hemolytic activity compared with other peptides [2] | remaining at 8 h, 150 μg/mL (in vitro; bovine, serum)
1 | CC(=O)N[C@@H](CCCCN)C(=O)N[C@@H](Cc1c[nH]c2ccccc12)C(=O)N[C@@H](Cc1c[nH]c2ccccc12)C(=O)N[C@@H](CCCCN)C(=O)N[C@@H](Cc1ccc2ccccc2c1)C(=O)N[C@@H](Cc1ccc2ccccc2c1)C(N)=O [Peptide S2-Nal-Nal, KWWK-Nal-Nal] (Ac-KWWK[2Nal][2Nal]-NH2; C-terminus assumed) | S1-Nal-Nal-Nal>S2-Nal-Nal=S2-Nal>S1-Nal-Nal>S1-Nal>S2-F-Nal>S1-KKK>S1>Nal-S1=S1-W>S1-WW | still retained their antimicrobial activities | higher than that of S2-Nal | diminished | – | –
2 | Ac-KKWRKWLAKKKKK-NH2 (C-terminus assumed) [Peptide S1-K-K-K, KKWRKWLAKKKKK] | S1-Nal-Nal-Nal>S2-Nal-Nal=S2-Nal>S1-Nal-Nal>S1-Nal>S2-F-Nal>S1-KKK>S1>Nal-S1=S1-W>S1-WW | – | – | diminished | – | –
3 | CC(=O)N[C@@H](CCCCN)C(=O)N[C@@H](CCCCN)C(=O)N[C@@H](Cc1c[nH]c2ccccc12)C(=O)N[C@@H](CCCNC(=N)N)C(=O)N[C@@H](CCCCN)C(=O)N[C@@H](Cc1c[nH]c2ccccc12)C(=O)N[C@@H](CC(C)C)C(=O)N[C@@H](C)C(=O)N[C@@H](CCCCN)C(=O)N[C@@H](CCCCN)C(=O)N[C@@H](Cc1ccc2ccccc2c1)C(N)=O [Peptide S1-Nal, KKWRKWLAKK-Nal] (Ac-KKWRKWLAKK[2Nal]-NH2; C-terminus assumed) | S1-Nal-Nal-Nal>S2-Nal-Nal=S2-Nal>S1-Nal-Nal>S1-Nal>S2-F-Nal>S1-KKK>S1>Nal-S1=S1-W>S1-WW | – | better than S1 | – | – | –
4 | Ac-KKWRKWLAKK-NH2 [Peptide S1, Ac-KKWRKWLAKK-NH2] | S1-Nal-Nal-Nal>S2-Nal-Nal=S2-Nal>S1-Nal-Nal>S1-Nal>S2-F-Nal>S1-KKK>S1>Nal-S1=S1-W>S1-WW | – | – | diminished | – | –
5 | CC(=O)N[C@@H](CCCCN)C(=O)N[C@@H](CCCCN)C(=O)N[C@@H](Cc1c[nH]c2ccccc12)C(=O)N[C@@H](CCCNC(=N)N)C(=O)N[C@@H](CCCCN)C(=O)N[C@@H](Cc1c[nH]c2ccccc12)C(=O)N[C@@H](CC(C)C)C(=O)N[C@@H](C)C(=O)N[C@@H](CCCCN)C(=O)N[C@@H](CCCCN)C(=O)N[C@@H](Cc1ccc2ccccc2c1)C(=O)N[C@@H](Cc1ccc2ccccc2c1)C(N)=O [Peptide S1-Nal-Nal, KKWRKWLAKK-Nal-Nal] (Ac-KKWRKWLAKK[2Nal][2Nal]-NH2; C-terminus assumed) | S1-Nal-Nal-Nal>S2-Nal-Nal=S2-Nal>S1-Nal-Nal>S1-Nal>S2-F-Nal>S1-KKK>S1>Nal-S1=S1-W>S1-WW | – | better than S1 | still retained the antimicrobial activities | higher hemolytic activity than other peptides | –
6 | CC(=O)N[C@@H](CCCCN)C(=O)N[C@@H](Cc1c[nH]c2ccccc12)C(=O)N[C@@H](Cc1c[nH]c2ccccc12)C(=O)N[C@@H](CCCCN)C(=O)N[C@@H](Cc1ccc2ccccc2c1)C(N)=O [Peptide S2-Nal, KWWK-Nal] (Ac-KWWK[2Nal]-NH2; C-terminus assumed) | S1-Nal-Nal-Nal>S2-Nal-Nal=S2-Nal>S1-Nal-Nal>S1-Nal>S2-F-Nal>S1-KKK>S1>Nal-S1=S1-W>S1-WW | – | – | diminished | – | –
7 | Ac-KKWRKWLAKKWW-NH2 (C-terminus assumed) [Peptide S1-W-W, KKWRKWLAKKWW] | S1-Nal-Nal-Nal>S2-Nal-Nal=S2-Nal>S1-Nal-Nal>S1-Nal>S2-F-Nal>S1-KKK>S1>Nal-S1=S1-W>S1-WW | – | – | diminished | – | –
8 | CC(=O)N[C@@H](CCCCN)C(=O)N[C@@H](CCCCN)C(=O)N[C@@H](Cc1ccc2ccccc2c1)C(=O)N[C@@H](CCCNC(=N)N)C(=O)N[C@@H](CCCCN)C(=O)N[C@@H](Cc1ccc2ccccc2c1)C(=O)N[C@@H](CC(C)C)C(=O)N[C@@H](C)C(=O)N[C@@H](CCCCN)C(=O)N[C@@H](CCCCN)C(N)=O [Nal-S1, KK-Nal-RK-Nal-LAKK] (Ac-KK[2Nal]RK[2Nal]LAKK-NH2; C-terminus assumed) | S1-Nal-Nal-Nal>S2-Nal-Nal=S2-Nal>S1-Nal-Nal>S1-Nal>S2-F-Nal>S1-KKK>S1>Nal-S1=S1-W>S1-WW | – | – | diminished | – | –
9 | CC(=O)N[C@@H](CCCCN)C(=O)N[C@@H](Cc1c[nH]c2ccccc12)C(=O)N[C@@H](Cc1c[nH]c2ccccc12)C(=O)N[C@@H](CCCCN)C(=O)N[C@@H](Cc1ccccc1)C(=O)N[C@@H](Cc1ccc2ccccc2c1)C(N)=O [Peptide S2-F-Nal, KWWK-F-Nal] (Ac-KWWKF[2Nal]-NH2; C-terminus assumed) | S1-Nal-Nal-Nal>S2-Nal-Nal=S2-Nal>S1-Nal-Nal>S1-Nal>S2-F-Nal>S1-KKK>S1>Nal-S1=S1-W>S1-WW | still retained their antimicrobial activities | higher than that of S2-Nal | diminished | – | –
10 | CC(=O)N[C@@H](CCCCN)C(=O)N[C@@H](CCCCN)C(=O)N[C@@H](Cc1c[nH]c2ccccc12)C(=O)N[C@@H](CCCNC(=N)N)C(=O)N[C@@H](CCCCN)C(=O)N[C@@H](Cc1c[nH]c2ccccc12)C(=O)N[C@@H](CC(C)C)C(=O)N[C@@H](C)C(=O)N[C@@H](CCCCN)C(=O)N[C@@H](CCCCN)C(=O)N[C@@H](Cc1ccc2ccccc2c1)C(=O)N[C@@H](Cc1ccc2ccccc2c1)C(=O)N[C@@H](Cc1ccc2ccccc2c1)C(N)=O [S1-Nal-Nal-Nal, KKWRKWLAKK-Nal-Nal-Nal] (Ac-KKWRKWLAKK[2Nal][2Nal][2Nal]-NH2; C-terminus assumed) | S1-Nal-Nal-Nal>S2-Nal-Nal=S2-Nal>S1-Nal-Nal>S1-Nal>S2-F-Nal>S1-KKK>S1>Nal-S1=S1-W>S1-WW | – | better than S1 | still retained the antimicrobial activities | higher hemolytic activity than other peptides | ~100%
11 | Ac-KKWRKWLAKKW-NH2 (C-terminus assumed) [Peptide S1-W, KKWRKWLAKKW] | S1-Nal-Nal-Nal>S2-Nal-Nal=S2-Nal>S1-Nal-Nal>S1-Nal>S2-F-Nal>S1-KKK>S1>Nal-S1=S1-W>S1-WW | – | – | diminished | – | –
